Experimental data as given in publication PMC12254266, “Multicolored sequential resonance energy transfer for detection of simultaneous ligand binding at G protein-coupled receptors” (Nature Communications, 2025).
Values joined by “and” are separate entries in the source; they are usually repeats but may differ in a detail not shown here. Equal values may be shown once.

Assays:
FFA1-Nluc = FFA1-Nluc (Homo sapiens, UniProt O14842); assay: Ca2+ mobilisation antagonism of FFA1 agonists (TUG-905, T360) in Flp-In T-REx 293 cells expressing FFA1-Nluc; type: cell-based; design: expressed in transfected cells
Chain of FFA1-Nluc (O14842 whole entry): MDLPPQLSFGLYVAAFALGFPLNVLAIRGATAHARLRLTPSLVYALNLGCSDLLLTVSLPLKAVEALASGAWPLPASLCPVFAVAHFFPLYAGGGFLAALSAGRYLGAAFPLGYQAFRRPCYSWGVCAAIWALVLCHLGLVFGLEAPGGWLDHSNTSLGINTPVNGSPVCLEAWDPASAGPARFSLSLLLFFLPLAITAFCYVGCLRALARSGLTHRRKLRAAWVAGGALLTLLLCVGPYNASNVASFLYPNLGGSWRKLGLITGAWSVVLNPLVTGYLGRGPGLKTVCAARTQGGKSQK
Experimental: Nluc-FFA1, FFA1-Nluc or untagged FFA1 Flp-In T-REx 293 cells were plated at 50,000 cells per well in poly-D-lysine coated black clear bottom 96-well plates. Cells were then cultured for 24 h until reaching confluency before culture medium was replaced with medium containing 100 ng/mL of doxycycline to induce receptor expression. Cells were cultured for a further 24 h before the assay. On the day of the assay culture medium was removed and replaced with medium containing 3 μM Fura2-AM Ca^2+ dye. […] Fura2 fluorescent emission at 520 nm following excitation with each of 340 and 380 nm was measured in regular intervals both before and after adding test compounds for a total of 90 s per well. Calcium responses were determined by taking the peak 340/380 ratio after first subtracting the ratios obtained prior to addition of test compound. […]
Ca2+ mobilization responses were measured in
Flp-In T-REx 293 cells expressing FFA1-Nluc. Ca2+ responses to increasing concentrations
pre-treated with 10 μM PPTQ. The mode of antagonism for PPTQ was assessed by
N=3 (A-D, F, H) or N=4 (E, G) independent experiments. S ource data are provided as a […]

Aqueous solubility = type: physicochemical; conditions: in words, relative to previous analogues

COc1ccc(CCCC(C)(C)C)c(N2CCC(COc3cccc(C(CC(=O)O)C4CC4)c3)CC2)c1.O=C(O)C(F)(F)F (centres unmarked) [T360]
Ca2% Response (%) (FFA1-Nluc; log[T360] -5, Veh (no antagonist), Sup Figure 6B/6D): 93.75% and 106.25% and 103.05% and 96.95%
Ca2% Response (%) (FFA1-Nluc; log[T360] -5, with 1 μM GW1100): 103.36% and 82.58% and 106.13% and 87.84% and 101.04% and 85.87%
Ca2% Response (%) (FFA1-Nluc; log[T360] -6, 10 μΜ (antagonist not given), Sup Figure 6F): 76.18% and 67.98% and 49.56% and 55.62% and 87.66% and 92.64%
Ca2% Response (%) (FFA1-Nluc; log[T360] -6, Veh (no antagonist), Sup Figure 6B/6D): 104.34% and 101.89% and 110.55% and 104.28% and 99.18% and 100.82%
Ca2% Response (%) (FFA1-Nluc; log[T360] -6, Veh (no antagonist), Sup Figure 6F): 99.06% and 95.34% and 97.85% and 90.61% and 102.43% and 99.32%
Ca2% Response (%) (FFA1-Nluc; log[T360] -6, column head 1.0 μM (antagonist not given), Sup Figure 6F): 76.88% and 59.19% and 87.71% and 76.79% and 92.25% and 102.12%
Ca2% Response (%) (FFA1-Nluc; log[T360] -6, with 1 μM GW1100): 91.67% and 83.66% and 88.97% and 81.49% and 113.97% and 109.62%
Ca2% Response (%) (FFA1-Nluc; log[T360] -6.5, Veh (no antagonist), Sup Figure 6F): 94.10% and 96.59% and 92.66% and 91.86% and 93.32% and 89.24%
Ca2% Response (%) (FFA1-Nluc; log[T360] -6.5, column head 1.0 μM (antagonist not given), Sup Figure 6F): 60.34% and 48.04% and 59.96% and 55.53% and 61.67% and 49.63%
Ca2% Response (%) (FFA1-Nluc; log[T360] -7, Veh (no antagonist), Sup Figure 6B/6D): 82.83% and 93.76% and 57.76% and 86.64% and 99.93%
Ca2% Response (%) (FFA1-Nluc; log[T360] -7, Veh (no antagonist), Sup Figure 6F): 93.07% and 80.87% and 91.43% and 68.96% and 59.63% and 63.91%
Ca2% Response (%) (FFA1-Nluc; log[T360] -7, column head 1.0 μM (antagonist not given), Sup Figure 6F): 3.96% and 7.11% and 12.73% and 6.84% and 9.24% and 5.08%
Ca2% Response (%) (FFA1-Nluc; log[T360] -8, 10 μΜ (antagonist not given), Sup Figure 6F): 1.71% and -1.05% and -0.90%
Ca2% Response (%) (FFA1-Nluc; log[T360] -8, column head 1.0 μM (antagonist not given), Sup Figure 6F): -0.81% and -3.31% and 3.71% and 5.53%
Ca2% Response (%) (FFA1-Nluc; log[T360] -9, Veh (no antagonist), Sup Figure 6B/6D): 2.38% and -2.45% and 0.48% and 0.09% and -1.34% and 1.34%
Ca2% Response (%) (FFA1-Nluc; log[T360] -11, Veh (no antagonist), Sup Figure 6B/6D): -3.34% and -2.39% and -1.53% and 0.46% and 1.72% and -0.55%

COc1ccc(C(=O)N(CC(C)(C)CNc2ccc([N+](=O)[O-])c3nonc23)c2cccc(C)n2)c(N2CCC(COc3cccc(C(CC(=O)O)C4CC4)c3)CC2)c1.O=C(O)C(F)(F)F (centres unmarked) [TUG-2597]
aqueous solubility (Aqueous solubility): improved aqueous solubility
